Assay results reported in patent publication US9783527B2, “Indazole ureas and method of use” (AbbVie Inc., priority 2014, dated 2017).

What follows are compounds tested against human Nav1.7 (Homo sapiens (Human), UniProt Q15858) (assay: FRET-based membrane potential assay, recombinant human sodium channel Nav1.7). Details: HEK293 cells stably expressing recombinant human Nav1.7; depolarization with veratridine (EC80) + scorpion venom.
Assay type: cell-based
Experimental: FRET-Based Membrane Potential Assays.
Recombinant, Human Sodium Channel, Nav1.7.
Two days prior to the experiment, frozen HEK293 cells stably expressing recombinant human Nav1.7 were quickly thawed and plated at 25,000 cells/well in growth medium [DMEM (Invitrogen #11965) with 10% HI FBS (Invitrogen #10082), 2 mM glutamine, 100 units/mL penicillin, 0.1 mg/mL streptomycin (PSG, Sigma #G1146), and 500 μg/mL Geneticin (Invitrogen #10131)] in black-walled, clear-bottom 384-well poly-D-lysine-coated assay plates (Greiner Bio-One, Frickenhausen, Germany) and incubated in a humidified 5% CO2 incubator at 37° C. On the day of the assay, medium was removed by aspiration, and cells were washed with assay buffer [HBSS (Invitrogen, Carlsbad, Calif.) containing 20 mM HEPES (Invitrogen, Carlsbad, Calif.)]. After washing, 30 μL assay buffer containing the fluorescent voltage-sensor probe CC2-DMPE (Invitrogen, Carlsbad, Calif.) at 20 μM and 0.01% pluronic F-127 (Invitrogen, Carlsbad, Calif.) was added to the cells. Cells were incubated for 40 minutes at room temperature in the dark. Following the incubation, the cells were washed and 30 μL assay buffer containing 2.5 μM DiSBAC2(3) substrate (Invitrogen, Carlsbad, Calif.) and 0.5 mM VABSC-1 (Invitrogen, Carlsbad, Calif.) was added to the cells. The cells were incubated for 90 minutes at room temperature in the dark. Fluorescence readings were made using a FLIPR®^TETRA (Molecular Devices, Sunnyvale Calif.) equipped with voltage-sensor probe optics. At the start of each experiment the optimal (EC80) concentration of depolarizing agent (veratridine) was determined by testing a dilution curve of assay buffer containing veratridine (Sigma-Aldrich, St. Louis, Mo.) and 1 mg/mL scorpion venom (SVqq, from Leiurus quinquestriatus; Sigma-Aldrich, St. Louis, Mo.). […] Test compounds in the daughter plate were diluted to (˜3×) solutions in assay buffer immediately before assaying. Using the FLIPR®^TETRA, 20 μL of the (3×) compound solutions were first added to the cells, then 20 μL of depolarizing solution (3×EC80 veratridine+SVqq) were added 3 minutes later to activate the channel. Changes in fluorescence were measured at wavelengths of 440-480 nm and 565-625 nm over the course of the experimental run. Membrane depolarization was expressed as a ratio of the maximum F440-480 nm/F565-625 nm reading above average baseline F440-480 nm/F565-625 nm reading. IC50 values were calculated from curve fits of the ratio data using a four-parameter logistic Hill equation (Accelrys Assay Explorer 3.3 Client, Accelrys, San Diego, Calif.) with percent inhibition plotted against compound concentration.

human Nav1.7, sequence (Q15858 whole entry): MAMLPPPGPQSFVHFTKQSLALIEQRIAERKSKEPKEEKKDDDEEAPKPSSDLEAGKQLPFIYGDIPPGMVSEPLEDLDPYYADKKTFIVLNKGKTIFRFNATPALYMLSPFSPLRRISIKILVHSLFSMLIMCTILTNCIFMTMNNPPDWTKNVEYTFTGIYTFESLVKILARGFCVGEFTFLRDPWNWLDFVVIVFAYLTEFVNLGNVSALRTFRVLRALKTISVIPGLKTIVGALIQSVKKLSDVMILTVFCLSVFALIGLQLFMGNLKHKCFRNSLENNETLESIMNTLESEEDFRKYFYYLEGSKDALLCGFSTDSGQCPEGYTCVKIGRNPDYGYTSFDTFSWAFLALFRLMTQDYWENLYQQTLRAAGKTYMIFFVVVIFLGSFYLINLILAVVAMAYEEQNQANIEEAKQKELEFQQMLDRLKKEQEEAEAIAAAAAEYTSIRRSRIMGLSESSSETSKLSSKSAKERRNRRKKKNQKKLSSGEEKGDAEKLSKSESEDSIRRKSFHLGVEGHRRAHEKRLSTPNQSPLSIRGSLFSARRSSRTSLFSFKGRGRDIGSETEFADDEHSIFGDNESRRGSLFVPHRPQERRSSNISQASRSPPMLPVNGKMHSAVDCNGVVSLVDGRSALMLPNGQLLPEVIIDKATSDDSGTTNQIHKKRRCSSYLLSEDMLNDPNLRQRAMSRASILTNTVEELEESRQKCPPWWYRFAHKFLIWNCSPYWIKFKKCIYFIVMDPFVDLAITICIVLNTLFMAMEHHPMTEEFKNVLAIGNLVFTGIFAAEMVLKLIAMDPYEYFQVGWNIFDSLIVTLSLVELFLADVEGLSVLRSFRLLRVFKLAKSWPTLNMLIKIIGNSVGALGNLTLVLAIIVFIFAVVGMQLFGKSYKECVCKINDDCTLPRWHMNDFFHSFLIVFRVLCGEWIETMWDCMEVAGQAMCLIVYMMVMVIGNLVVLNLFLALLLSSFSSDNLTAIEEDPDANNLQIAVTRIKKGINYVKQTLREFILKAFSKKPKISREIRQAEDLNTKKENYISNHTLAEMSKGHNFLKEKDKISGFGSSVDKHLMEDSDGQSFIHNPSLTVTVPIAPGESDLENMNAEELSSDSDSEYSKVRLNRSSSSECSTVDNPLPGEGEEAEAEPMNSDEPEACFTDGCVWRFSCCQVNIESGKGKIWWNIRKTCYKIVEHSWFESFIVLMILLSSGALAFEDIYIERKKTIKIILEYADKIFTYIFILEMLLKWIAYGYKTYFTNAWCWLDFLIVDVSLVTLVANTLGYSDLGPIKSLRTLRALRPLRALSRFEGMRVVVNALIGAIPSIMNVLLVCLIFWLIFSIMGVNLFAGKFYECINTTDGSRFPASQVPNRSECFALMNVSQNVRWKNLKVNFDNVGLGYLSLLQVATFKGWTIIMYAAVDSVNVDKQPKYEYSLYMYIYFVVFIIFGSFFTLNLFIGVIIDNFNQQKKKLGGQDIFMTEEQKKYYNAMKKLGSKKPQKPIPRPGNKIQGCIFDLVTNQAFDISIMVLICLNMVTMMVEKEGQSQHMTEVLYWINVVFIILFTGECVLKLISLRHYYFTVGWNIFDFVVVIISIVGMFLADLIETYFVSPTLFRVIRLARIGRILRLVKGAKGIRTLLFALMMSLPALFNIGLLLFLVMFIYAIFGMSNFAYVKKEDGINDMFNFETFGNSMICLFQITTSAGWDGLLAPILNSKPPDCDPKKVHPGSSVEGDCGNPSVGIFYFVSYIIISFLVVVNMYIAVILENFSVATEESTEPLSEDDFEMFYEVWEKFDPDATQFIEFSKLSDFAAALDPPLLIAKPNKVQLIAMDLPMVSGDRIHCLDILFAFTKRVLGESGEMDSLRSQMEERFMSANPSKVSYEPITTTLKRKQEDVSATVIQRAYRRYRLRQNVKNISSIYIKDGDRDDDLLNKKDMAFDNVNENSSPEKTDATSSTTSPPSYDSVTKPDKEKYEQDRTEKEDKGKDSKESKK

| Structure (SMILES) | IC50 [nM] |
| --- | --- |
| O=C1N(CC(=O)N2CCC[C@H]2C(F)(F)F)CCN1c1cccc2c1cnn2-c1ccccc1F [Example 169, 1-[1-(2-fluorophenyl)-1H-indazol-4-yl]-3-{2-oxo-2-[(2S)-2-(trifluoromethyl)pyrrolidin-1-yl]ethyl}imidazolidin-2-one] | 1070 |
| CC(C)CC(O)CN1CCCN(c2cccc3c2cnn3-c2ccccc2F)C1=O (stereo not shown) [Example 186, 1-[1-(2-fluorophenyl)-1H-indazol-4-yl]-3-(2-hydroxy-4-methylpentyl)tetrahydropyrimidin-2(1H)-one] | 1410 |
| Cc1cnc(CN2CCN(c3cccc4c3cnn4-c3ccccc3F)C2=O)nc1 [Example 219, 1-[1-(2-fluorophenyl)-1H-indazol-4-yl]-3-[(5-methylpyrimidin-2-yl)methyl]imidazolidin-2-one] | 5210 |
| O=C(OC1CCCC1)N1CCN2C(=O)N(c3cccc4c3cnn4-c3ccccc3F)CC2C1 (stereo not shown) [Example 137, cyclopentyl 2-[1-(2-fluorophenyl)-1H-indazol-4-yl]-3-oxohexahydroimidazo[1,5-a]pyrazine-7(1H)-carboxylate] | 2300 |
| O=C(CN1CCN(c2cccc3c2cnn3-c2ccccc2F)C1=O)C1CCCC1 [Example 144, 1-(2-cyclopentyl-2-oxoethyl)-3-[1-(2-fluorophenyl)-1H-indazol-4-yl]imidazolidin-2-one] | 2100 |
| O=C1N(c2cccc3c2cnn3-c2ccccc2F)CCN1C1CCC1 [Example 184, 1-cyclobutyl-3-[1-(2-fluorophenyl)-1H-indazol-4-yl]imidazolidin-2-one] | 1060 |
| CC1(CN2CCN(c3cccc4c3cnn4-c3ccccc3F)C2=O)COC1 [Example 213, 1-[1-(2-fluorophenyl)-1H-indazol-4-yl]-3-[(3-methyloxetan-3-yl)methyl]imidazolidin-2-one] | 3650 |
| CN(CCN1CCOCC1)C(=O)CN1CCN(c2cccc3c2cnn3-c2ccccc2F)C1=O [Example 72, 2-{3-[1-(2-fluorophenyl)-1H-indazol-4-yl]-2-oxoimidazolidin-1-yl}-N-methyl-N-[2-(morpholin-4-yl)ethyl]acetamide] | 1800 |
| COCCN1CCN(c2cccc3c2cnn3-c2ccccc2F)C1=O [Example 59, 1-[1-(2-fluorophenyl)-1H-indazol-4-yl]-3-(2-methoxyethyl)imidazolidin-2-one] | 1890 |
| O=C(CC1CC2CCC1C2)CN1CCN(c2cccc3c2cnn3-c2ccccc2F)C1=O (stereo not shown) [Example 142, 1-[3-(bicyclo[2.2.1]hept-2-yl)-2-oxopropyl]-3-[1-(2-fluorophenyl)-1H-indazol-4-yl]imidazolidin-2-one] | 2000 |
| O=C1NCCN1CCN1CCN(c2cccc3c2cnn3-c2ccccc2F)C1=O [Example 63, 1-[1-(2-fluorophenyl)-1H-indazol-4-yl]-3-[2-(2-oxoimidazolidin-1-yl)ethyl]imidazolidin-2-one] | 4120 |
| CC(C)[C@H]1CCCCN1C(=O)CN1CCN(c2cccc3c2cnn3-c2ccccc2F)C1=O [Example 124, 1-[1-(2-fluorophenyl)-1H-indazol-4-yl]-3-{2-[(2R)-2-isopropylpiperidin-1-yl]-2-oxoethyl}imidazolidin-2-one] | 1200 |
| CC(C)c1cc(CN2CCN(c3cccc4c3cnn4-c3ccccc3F)C2=O)no1 [Example 251, 1-[1-(2-fluorophenyl)-1H-indazol-4-yl]-3-[(5-isopropyl-1,2-oxazol-3-yl)methyl]imidazolidin-2-one] | 2060 |
| Cc1cc(CN2CCN(c3cccc4c3cnn4-c3ccccc3F)C2=O)on1 [Example 244, 1-[1-(2-fluorophenyl)-1H-indazol-4-yl]-3-[(3-methyl-1,2-oxazol-5-yl)methyl]imidazolidin-2-one] | 3080 |
| O=C(CN1CCN(c2cccc3c2cnn3-c2ccccc2F)C1=O)c1cccc(F)c1 [Example 150, 1-[1-(2-fluorophenyl)-1H-indazol-4-yl]-3-[2-(3-fluorophenyl)-2-oxoethyl]imidazolidin-2-one] | 3160 |
| COC1C2CCC1CN(C(=O)CN1CCN(c3cccc4c3cnn4-c3ccccc3F)C1=O)C2 (stereo not shown) [Example 109, 1-[1-(2-fluorophenyl)-1H-indazol-4-yl]-3-[2-(8-methoxy-3-azabicyclo[3.2.1]oct-3-yl)-2-oxoethyl]imidazolidin-2-one] | 1020 |
| O=C(CN1CCN(c2cccc3c2cnn3-c2ccccc2F)C1=O)NCC1CC1 [Example 209, N-(cyclopropylmethyl)-2-{3-[1-(2-fluorophenyl)-1H-indazol-4-yl]-2-oxoimidazolidin-1-yl}acetamide] | 1060 |
| O=C(CN1CCN(c2cccc3c2cnn3-c2ccccc2F)C1=O)c1cccnc1 [Example 152, 1-[1-(2-fluorophenyl)-1H-indazol-4-yl]-3-[2-oxo-2-(pyridin-3-yl)ethyl]imidazolidin-2-one] | 2260 |
| O=C1N(c2cnccc2F)CCN1c1cccc2c1cnn2-c1ccccc1F [Example 154, 1-[1-(2-fluorophenyl)-1H-indazol-4-yl]-3-(4-fluoropyridin-3-yl)imidazolidin-2-one] | 2870 |
| CC(C)NC(=O)CN1CCN(c2cccc3c2cnn3-c2ccccc2F)C1=O [Example 95, 2-{3-[1-(2-fluorophenyl)-1H-indazol-4-yl]-2-oxoimidazolidin-1-yl}-N-isopropylacetamide] | 2680 |
| CC(C)CC(=O)CN1CCCN(c2cccc3c2cnn3-c2ccccc2F)C1=O [Example 188, 1-[1-(2-fluorophenyl)-1H-indazol-4-yl]-3-(4-methyl-2-oxopentyl)tetrahydropyrimidin-2(1H)-one] | 1660 |
| CC(=O)CN1CCN(c2cccc3c2cnn3-c2ccccc2F)C1=O [Example 145, 1-[1-(2-fluorophenyl)-1H-indazol-4-yl]-3-(2-oxopropyl)imidazolidin-2-one] | 6230 |
| CC(C)C[C@@H](O)CN1CCN(c2cccc3c2cnn3-c2ccccc2F)C1=O [Example 155, 1-[1-(2-fluorophenyl)-1H-indazol-4-yl]-3-[(2R)-2-hydroxy-4-methylpentyl]imidazolidin-2-one] | 1880 |
| O=C1N(c2cccc3c2cnn3-c2ccccc2F)CCN1[C@H]1CC[C@H](O)CC1 [Example 265, 1-[1-(2-fluorophenyl)-1H-indazol-4-yl]-3-(trans-4-hydroxycyclohexyl)imidazolidin-2-one] | 8150 |
| O=C1N(CC(=O)N2CCC[C@@H]2C(F)(F)F)CCN1c1cccc2c1cnn2-c1ccccc1F [Example 171, 1-[1-(2-fluorophenyl)-1H-indazol-4-yl]-3-{2-oxo-2-[(2R)-2-(trifluoromethyl)pyrrolidin-1-yl]ethyl}imidazolidin-2-one] | 285 |
| CC(C)(C)OC(=O)N1CC(N2CCN(c3cccc4c3cnn4-c3ccccc3F)C2=O)C1 [Example 267, tert-butyl 3-{3-[1-(2-fluorophenyl)-1H-indazol-4-yl]-2-oxoimidazolidin-1-yl}azetidine-1-carboxylate] | 1090 |
| O=C1N(c2cccc3c2cnn3-c2ccccc2F)CCN1[C@H]1CO[C@@H](c2ccccc2F)C1 [Example 185, 1-[1-(2-fluorophenyl)-1H-indazol-4-yl]-3-[(3R,5R)-5-(2-fluorophenyl)tetrahydrofuran-3-yl]imidazolidin-2-one] | 965 |
| N#C[C@H]1CCCN1C(=O)CN1CCN(c2cccc3c2cnn3-c2ccccc2F)C1=O [Example 201, (2R)-1-({3-[1-(2-fluorophenyl)-1H-indazol-4-yl]-2-oxoimidazolidin-1-yl}acetyl)pyrrolidine-2-carbonitrile] | 661 |
